This passage reports IC50 results from patent publication US10246453B2, “Benzenesulfonamide compounds and their use as therapeutic agents” (Xenon Pharmaceuticals Inc., priority 2016, dated 2019).

Counter-ions that a name gives are not always drawn.

The target of data set [1] is T1, NaV1.1 (Homo sapiens (Human), UniProt P35498). The data set can be described thus: Sodium Influx Assay (Flux), NaV1.1. Type of data set: cell-based. Conditions: Trex HEK293 cells, ANG2 dye; arithmetic mean.
Data set [2] deals with T2, NaV1.6 (Homo sapiens (Human), UniProt Q9UQD0). The data set can be described thus: Electrophysiological Assay (EP), patch voltage clamp, NaV1.6. Conditions: HEK-293 cells, whole-cell patch clamp, inactivated state; arithmetic mean. Type of data set: cell-based. From the text: Patch voltage clamp electrophysiology allows for the direct measurement and quantification of block of voltage-gated sodium channels (Nay's), and allows the determination of the time-and voltage-dependence of block which has been interpreted as differential binding to the resting, open, and inactivated states of the sodium channel (Hille, B., Journal of General Physiology (1977), 69: 497-515).
T2 sequence (Q9UQD0 whole entry): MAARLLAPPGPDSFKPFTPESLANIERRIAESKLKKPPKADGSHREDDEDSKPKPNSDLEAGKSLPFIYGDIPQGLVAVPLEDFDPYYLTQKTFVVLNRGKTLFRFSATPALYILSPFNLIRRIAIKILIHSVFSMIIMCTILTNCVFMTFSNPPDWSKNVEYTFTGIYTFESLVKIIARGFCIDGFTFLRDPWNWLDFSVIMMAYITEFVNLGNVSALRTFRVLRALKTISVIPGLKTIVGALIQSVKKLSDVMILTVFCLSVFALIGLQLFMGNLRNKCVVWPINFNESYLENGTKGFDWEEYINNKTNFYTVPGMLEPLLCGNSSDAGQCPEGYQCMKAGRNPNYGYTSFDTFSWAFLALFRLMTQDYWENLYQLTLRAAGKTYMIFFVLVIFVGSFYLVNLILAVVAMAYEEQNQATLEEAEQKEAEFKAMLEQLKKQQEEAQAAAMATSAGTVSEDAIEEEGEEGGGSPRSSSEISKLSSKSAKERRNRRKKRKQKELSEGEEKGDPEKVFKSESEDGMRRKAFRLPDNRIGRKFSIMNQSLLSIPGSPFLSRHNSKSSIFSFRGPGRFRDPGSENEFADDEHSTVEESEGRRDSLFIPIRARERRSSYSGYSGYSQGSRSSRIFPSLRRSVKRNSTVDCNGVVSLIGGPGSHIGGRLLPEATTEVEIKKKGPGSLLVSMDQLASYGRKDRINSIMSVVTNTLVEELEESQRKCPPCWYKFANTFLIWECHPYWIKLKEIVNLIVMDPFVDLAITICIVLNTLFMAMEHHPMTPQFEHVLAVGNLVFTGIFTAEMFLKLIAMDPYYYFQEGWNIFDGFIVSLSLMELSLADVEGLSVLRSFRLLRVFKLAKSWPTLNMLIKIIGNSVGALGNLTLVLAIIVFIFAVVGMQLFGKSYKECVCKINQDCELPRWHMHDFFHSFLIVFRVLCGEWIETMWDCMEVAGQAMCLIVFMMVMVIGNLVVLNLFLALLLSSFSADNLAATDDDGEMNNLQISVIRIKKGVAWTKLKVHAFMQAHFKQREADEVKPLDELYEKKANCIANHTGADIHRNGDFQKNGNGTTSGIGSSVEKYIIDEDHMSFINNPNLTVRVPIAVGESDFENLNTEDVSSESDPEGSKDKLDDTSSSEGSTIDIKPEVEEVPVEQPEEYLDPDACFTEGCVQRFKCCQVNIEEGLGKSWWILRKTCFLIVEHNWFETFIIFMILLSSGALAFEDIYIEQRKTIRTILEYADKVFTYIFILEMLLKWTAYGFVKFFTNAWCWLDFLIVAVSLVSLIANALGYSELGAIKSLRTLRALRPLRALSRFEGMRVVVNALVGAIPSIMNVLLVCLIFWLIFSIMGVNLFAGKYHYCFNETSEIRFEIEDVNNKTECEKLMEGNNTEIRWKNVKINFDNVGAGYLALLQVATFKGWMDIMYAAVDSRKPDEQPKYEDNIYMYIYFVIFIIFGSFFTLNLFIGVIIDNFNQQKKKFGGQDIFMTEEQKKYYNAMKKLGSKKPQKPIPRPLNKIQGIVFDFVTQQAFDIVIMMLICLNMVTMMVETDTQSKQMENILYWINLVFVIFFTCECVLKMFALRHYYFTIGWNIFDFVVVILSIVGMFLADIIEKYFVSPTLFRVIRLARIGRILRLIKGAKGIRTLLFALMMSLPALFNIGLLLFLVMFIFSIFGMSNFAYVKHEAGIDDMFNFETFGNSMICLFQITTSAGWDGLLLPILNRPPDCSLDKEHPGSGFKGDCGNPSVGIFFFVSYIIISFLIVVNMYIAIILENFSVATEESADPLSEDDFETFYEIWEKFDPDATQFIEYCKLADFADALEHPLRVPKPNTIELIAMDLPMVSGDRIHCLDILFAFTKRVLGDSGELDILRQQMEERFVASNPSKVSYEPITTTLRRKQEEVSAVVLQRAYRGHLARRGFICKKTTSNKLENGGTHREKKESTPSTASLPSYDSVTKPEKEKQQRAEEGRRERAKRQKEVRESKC
NaV1.1, NaV1.5 and NaV1.6 cDNAs (NM_001165964 (SCN1A), NM_000335 (SCN5A) and NM_014191 (SCN8A), respectively) were stably expressed in HEK-293 cells.
(§1) Sodium currents were measured using the patch clamp technique in the whole-cell configuration using either a PatchXpress automated voltage clamp or manually using an Axopatch 200B (Axon Instruments) or Model 2400 (A-M systems) amplifier.
The manual voltage clamp protocol was as follows: Borosilicate glass micropipettes were fire-polished to a tip diameter yielding a resistance of 2-4 Mohms in the working solutions. […] In some studies, the external sodium was reduced by equimolar replacement with choline. Osmolarity in the CsF internal and NaCl external solutions was adjusted to 300 mOsm/kg and 310 mOsm/kg with glucose, respectively. All recordings were performed at ambient temperature in a bath chamber with a volume of 150 μL. Control sodium currents were measured in 0.5% DMSO. Controls and representative compounds of the invention were applied to the recording chamber through a 4-pinch or 8-pinch valve bath perfusion system manufactured by ALA Scientific Instruments.
Currents were recorded at 40 kHz sampling frequency, filtered at […], and stored using a Digidata-1322A analogue/digital interface with the pClamp software (Axon Instruments). Series resistance compensation was applied (60-80%). […] All statistics in this study are given as mean±SD.
The membrane potential was maintained at a voltage where inactivation of the channel is complete. The voltage is then stepped back to a very negative (Vhold=−150 mV) voltage for 20 ms and then a test pulse is applied to quantify the compound block. The 20 ms brief repolarization was long enough for compound-free channels to completely recover from fast inactivation, but the compound-bound channels recovered more slowly such that negligible recovery could occur during this interval. The percent decrease in sodium current following wash-on of compound was taken as the percent block of sodium channels.

In data set [3] the target is T1, NaV1.1. In words: Electrophysiological Assay (EP), patch voltage clamp, NaV1.1. Type of data set: cell-based. Conditions: HEK-293 cells, whole-cell patch clamp, inactivated state; arithmetic mean. How it is done:
as §1
In some studies, the external sodium was reduced by equimolar replacement with choline. […] All recordings were performed at ambient temperature in a bath chamber with a volume of 150 μL. Control sodium currents were measured in 0.5% DMSO. Controls and representative compounds of the invention were applied to the recording chamber through a 4-pinch or 8-pinch valve bath perfusion system manufactured by ALA Scientific Instruments.
Series resistance compensation was applied (60-80%). […] All statistics in this study are given as mean±SD.
The membrane potential was maintained at a voltage where inactivation of the channel is complete. The voltage is then stepped back to a very negative (Vhold=−150 mV) voltage for 20 ms and then a test pulse is applied to quantify the compound block. […] The percent decrease in sodium current following wash-on of compound was taken as the percent block of sodium channels.

Data set [4] deals with T2, NaV1.6. The data set can be described thus: Sodium Influx Assay (Flux), NaV1.6. Conditions: read-out: Flux NaV1.6 IC50; Trex HEK293 cells, ANG2 dye; arithmetic mean.
The target in data set [5] is NaV1.5 (Homo sapiens (Human), UniProt Q14524). In words: Sodium Influx Assay (Flux), NaV1.5. The conditions noted are these: read-out: Flux NaV1.5 IC50; Trex HEK293 cells, ANG2 dye; arithmetic mean.
NaV1.5, sequence (Q14524 other isoform, or with tags, fused parts or gaps): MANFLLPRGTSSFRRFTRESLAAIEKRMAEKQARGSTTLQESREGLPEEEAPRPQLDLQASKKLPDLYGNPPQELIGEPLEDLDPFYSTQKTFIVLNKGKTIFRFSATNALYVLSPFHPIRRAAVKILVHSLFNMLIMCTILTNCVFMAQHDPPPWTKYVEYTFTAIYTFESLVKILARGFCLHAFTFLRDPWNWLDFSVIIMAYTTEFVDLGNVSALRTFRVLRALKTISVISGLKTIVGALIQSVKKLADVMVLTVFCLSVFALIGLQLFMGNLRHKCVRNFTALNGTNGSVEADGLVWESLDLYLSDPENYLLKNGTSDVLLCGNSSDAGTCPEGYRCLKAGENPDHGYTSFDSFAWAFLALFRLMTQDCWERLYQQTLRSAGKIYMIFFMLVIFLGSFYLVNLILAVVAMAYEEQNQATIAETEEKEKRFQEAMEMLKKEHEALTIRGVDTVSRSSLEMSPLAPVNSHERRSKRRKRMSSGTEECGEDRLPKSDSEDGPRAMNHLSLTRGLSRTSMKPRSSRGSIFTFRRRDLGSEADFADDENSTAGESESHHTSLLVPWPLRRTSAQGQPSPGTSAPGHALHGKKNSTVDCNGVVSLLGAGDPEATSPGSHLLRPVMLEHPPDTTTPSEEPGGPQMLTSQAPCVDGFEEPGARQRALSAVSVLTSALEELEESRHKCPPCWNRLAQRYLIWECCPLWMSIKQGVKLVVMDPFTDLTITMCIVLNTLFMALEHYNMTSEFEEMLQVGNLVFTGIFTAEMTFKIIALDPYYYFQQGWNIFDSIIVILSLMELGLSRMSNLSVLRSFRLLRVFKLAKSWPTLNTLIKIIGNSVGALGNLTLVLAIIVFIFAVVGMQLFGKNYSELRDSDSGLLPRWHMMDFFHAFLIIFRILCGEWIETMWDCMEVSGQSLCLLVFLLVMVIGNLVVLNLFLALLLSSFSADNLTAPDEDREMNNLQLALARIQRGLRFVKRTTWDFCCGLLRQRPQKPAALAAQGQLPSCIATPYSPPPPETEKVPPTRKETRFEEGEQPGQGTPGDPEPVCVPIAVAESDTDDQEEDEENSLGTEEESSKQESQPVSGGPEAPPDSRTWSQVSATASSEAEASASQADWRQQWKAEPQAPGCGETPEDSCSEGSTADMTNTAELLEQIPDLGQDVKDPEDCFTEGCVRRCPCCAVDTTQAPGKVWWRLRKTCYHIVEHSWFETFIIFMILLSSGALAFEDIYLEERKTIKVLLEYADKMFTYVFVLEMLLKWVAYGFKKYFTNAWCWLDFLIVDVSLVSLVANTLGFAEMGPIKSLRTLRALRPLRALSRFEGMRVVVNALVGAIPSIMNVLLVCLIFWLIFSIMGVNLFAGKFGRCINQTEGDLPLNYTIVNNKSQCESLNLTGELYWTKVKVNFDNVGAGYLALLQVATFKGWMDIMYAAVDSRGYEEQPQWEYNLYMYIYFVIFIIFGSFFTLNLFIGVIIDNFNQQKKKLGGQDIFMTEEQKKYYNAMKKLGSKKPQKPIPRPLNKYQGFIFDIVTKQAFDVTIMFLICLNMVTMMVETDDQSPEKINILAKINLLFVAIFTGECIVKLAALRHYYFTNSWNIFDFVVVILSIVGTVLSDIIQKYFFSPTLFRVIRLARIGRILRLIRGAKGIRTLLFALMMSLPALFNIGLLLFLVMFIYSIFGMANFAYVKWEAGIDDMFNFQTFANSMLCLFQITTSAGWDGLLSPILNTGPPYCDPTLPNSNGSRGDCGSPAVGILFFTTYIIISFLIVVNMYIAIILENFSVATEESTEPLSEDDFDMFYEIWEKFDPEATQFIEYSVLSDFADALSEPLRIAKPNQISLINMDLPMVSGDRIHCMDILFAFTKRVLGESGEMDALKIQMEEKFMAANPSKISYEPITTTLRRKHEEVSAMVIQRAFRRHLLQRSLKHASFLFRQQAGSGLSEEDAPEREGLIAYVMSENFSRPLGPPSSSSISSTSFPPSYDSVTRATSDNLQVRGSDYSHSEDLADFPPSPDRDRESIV

Take `C[C@H]1CN(Cc2ccccc2)C[C@@H]1Nc1ccc(S(=O)(=O)Nc2nccs2)cc1Cl` (relative stereo) [Example 74, 4-((trans-1-benzyl-4-methylpyrrolidin-3-yl)amino)-3-chloro-N-(thiazol-2-yl)benzenesulfonamide]: the IC50 (in general, the concentration that gives 50% inhibition) came to 1.54 µM in data set [1]; 0.025 µM in data set [2]; 1.03 µM in data set [3]; 0.167 µM in data set [4]; 8.67 µM in data set [5].
Taken in the same sequence, the figures for `O=S(=O)(Nc1nccs1)c1ccc(OC2CCN(Cc3cccc(C(F)F)c3)CC2)c(Cl)c1` [Example 11, 3-chloro-4-((1-(3-(difluoromethyl)benzyl)piperidin-4-yl)oxy)-N-(thiazol-2-yl)benzenesulfonamide] were 8.12 µM, 0.082 µM, 7.21 µM, 0.253 µM and 7.58 µM.
Regarding `O=S(=O)(Nc1nccs1)c1ccc(O[C@@H]2C[C@H]3CC[C@@H](C2)N3Cc2ccccc2)c(Cl)c1` [Example 16, 4-(((1R,3s,5S)-8-benzyl-8-azabicyclo[3.2.1]octan-3-yl)oxy)-3-chloro-N-(thiazol-2-yl)benzenesulfonamide], the IC50 in data set [1] is 22.8 µM; in data set [2] it was 0.03 µM; in data set [3], above 10 µM; in data set [4], 0.429 µM; in data set [5] it was above 30 µM.
Taken in the same sequence, the figures for `CC1(Nc2ccc(S(=O)(=O)Nc3nccs3)cc2Cl)CN(Cc2ccccc2)C1` [Example 25, 4-((1-benzyl-3-methylazetidin-3-yl)amino)-3-chloro-N-(thiazol-2-yl)benzenesulfonamide 2,2,2-trifluoroacetate] were 5.76 µM, 0.138 µM, above 10 µM, 0.569 µM and 24.7 µM.
Taken in the same sequence, the figures for `CN(c1ccc(S(=O)(=O)Nc2nccs2)cc1Cl)[C@H]1CCN(Cc2cccc(Cl)c2)C1` [Example 27, (S)-3-chloro-4-((1-(3-chlorobenzyl)pyrrolidin-3-yl)(methyl)amino)-N-(thiazol-2-yl)benzenesulfonamide] were 3.73 µM, 0.07 µM, 3.41 µM, 0.437 µM and 6.9 µM.
Consider `CN(c1ccc(S(=O)(=O)Nc2nccs2)cc1Cl)[C@H]1CCN(Cc2cccc(C(F)F)c2)C1` [Example 28, (S)-3-chloro-4-((1-(3-(difluoromethyl)benzyl)pyrrolidin-3-yl)(methyl)amino)-N-(thiazol-2-yl)benzenesulfonamide], for which the IC50 was determined as 3.23 µM in data set [1]; 0.036 µM in data set [2]; 4.21 µM in data set [3]; 0.221 µM in data set [4]; 5.73 µM in data set [5].
For `CN(c1ccc(S(=O)(=O)Nc2ncns2)cc1Cl)[C@H]1CCN(Cc2cc(Cl)ccc2F)C1` [Example 33, (S)-3-chloro-4-((1-(5-chloro-2-fluorobenzyl)pyrrolidin-3-yl)(methyl)amino)-N-(1,2,4-thiadiazol-5-yl)benzenesulfonamide 2,2,2-trifluoroacetate], in that order: 5.11 µM, 0.07 µM, above 10 µM, 0.041 µM and 7.79 µM.
For `CCN(c1ccc(S(=O)(=O)Nc2ncns2)cc1Cl)[C@H]1CCN(Cc2ccccc2)C1` [Example 36, (S)-4-((1-benzylpyrrolidin-3-yl)(ethyl)amino)-3-chloro-N-(1,2,4-thiadiazol-5-yl)benzenesulfonamide], in that order: above 30 µM, 0.685 µM, above 10 µM, 0.615 µM and above 30 µM.
`CN(c1cc(F)c(S(=O)(=O)Nc2cccc(F)n2)cc1Cl)[C@H]1CCN(Cc2ccccc2)C1` [Example 40, (S)-4-((1-benzylpyrrolidin-3-yl)(methyl)amino)-5-chloro-2-fluoro-N-(6-fluoropyridin-2-yl)benzenesulfonamide bis(trifluoroacetic acid) salt]: the IC50 is 6.79 µM in data set [1]; 3.88 µM in data set [2]; above 10 µM in data set [3]; 3.25 µM in data set [4]; 15.8 µM in data set [5].
Take `CN(c1ccc(S(=O)(=O)Nc2cscn2)cc1Cl)[C@H]1CCN(Cc2ccccc2)C1` [Example 41, (S)-4-((1-benzylpyrrolidin-3-yl)(methyl)amino)-3-chloro-N-(thiazol-4-yl)benzenesulfonamide 2,2,2-trifluoroacetate]: the IC50 is 6.64 µM in data set [1]; 0.748 µM in data set [2]; above 10 µM in data set [3]; 1.04 µM in data set [4]; 9.01 µM in data set [5].
For `C[C@H](c1ccccc1)N1CC[C@H](N(C)c2ccc(S(=O)(=O)Nc3nccs3)cc2Cl)C1` [Example 44, 3-chloro-4-(methyl((S)-1-((R)-1-phenylethyl)pyrrolidin-3-yl)amino)-N-(thiazol-2-yl)benzenesulfonamide], in that order: 10.7 µM, 0.089 µM, above 10 µM, 0.1 µM and above 30 µM.
Taken in the same sequence, the figures for `C[C@H](c1ccccc1)N1CCC(Oc2ccc(S(=O)(=O)Nc3cscn3)cc2Cl)CC1` [Example 57, (R)-3-chloro-4-((1-(1-phenylethyl)piperidin-4-yl)oxy)-N-(thiazol-4-yl)benzenesulfonamide 2,2,2-trifluoroacetate] were 13.7 µM, 0.268 µM, above 10 µM, 0.97 µM and 5.25 µM.
For `CC(C)(c1ccccc1)N1CCC(Oc2ccc(S(=O)(=O)Nc3nccs3)cc2Cl)CC1` [Example 59, 3-chloro-4-((1-(2-phenylpropan-2-yl)piperidin-4-yl)oxy)-N-(thiazol-2-yl)benzenesulfonamide 2,2,2-trifluoroacetate], in that order: 7.44 µM, 0.092 µM, 9.91 µM, 0.255 µM and 7.44 µM.
Take `CC1(Nc2ccc(S(=O)(=O)Nc3nccs3)cc2Cl)CCN(Cc2ccccc2)C1` (centres unmarked) [Example 61, 4-((1-benzyl-3-methylpyrrolidin-3-yl)amino)-3-chloro-N-(thiazol-2-yl)benzenesulfonamide]: the IC50 is 6.37 µM in data set [1]; 0.137 µM in data set [2]; above 10 µM in data set [3]; 0.176 µM in data set [4]; 6.96 µM in data set [5].
For `CN(c1ccc(S(=O)(=O)Nc2cscn2)cc1Cl)[C@H]1CCN(C(C)(C)c2ccccc2)C1` [Example 62, (S)-3-chloro-4-(methyl(1-(2-phenylpropan-2-yl)pyrrolidin-3-yl)amino)-N-(thiazol-4-yl)benzenesulfonamide], in that order: 4.24 µM, 0.15 µM, 6.55 µM, 0.536 µM and 4.53 µM.
Regarding `O=S(=O)(Nc1nccs1)c1ccc(OC2CCN(Cc3ccccn3)CC2)c(Cl)c1` [Example 65, 3-chloro-4-((1-(pyridin-2-ylmethyl)piperidin-4-yl)oxy)-N-(thiazol-2-yl)benzenesulfonamide], the IC50 in data set [1] was above 30 µM; in data set [2], 0.839 µM; in data set [3] it was above 10 µM; in data set [4], 0.552 µM; in data set [5], 29.7 µM.
